# Legend:
# [1] = tested on: IL-1β, KC, IFN-γ and TNF-α in the mouse kidney; assay: Kidney cytokine protein array after cisplatin; format: in vivo
# Procedure: (§1) Cisplatin (cis-diammineplatinum II dichloride, Sigma-Aldrich, St.Louis, Mo.) was dissolved in 0.9% of saline at a concentration of 1 mg/ml. Mice were given a single i.p. injection either with cisplatin (40 mg/kg body weight) or with equal volume of saline. […] For kidney T cell immunohistochemical staining, three wild type mice in each group were sacrificed at 1 hr, 6 hr, 12 hr, 24 hr or 72 hr after cisplatin injection. All nu/nu or knockout mice and their littermates were sacrificed at 24 hr or 72 hr after the cisplatin administration for histology or for kidney cytokine array. All collected mice kidneys were either fixed in 10% buffered formalin for histology/immunohistochemistry, or snap frozen with liquid nitrogen for tissue cytokine array.
# In order to examine pro-inflammatory molecules generated by cisplatin, protein levels of IL-1β, IFN-γ, TNF-α and KC was measured in the mice kidney by using Bio-Rad Bio-Plex™ multiple cytokines array technique (Bio-Rad Laboratories Inc., Hercules, Calif.) described elsewhere in depth (19) with a simplified small template containing only above four cytokine/chemokines. Briefly, snap frozen kidney tissues were homogenized in a kit-attached cell-lysis buffer, and the homogenates were centrifuged at 12,000 rpm for 15 min at 4° C. Total protein concentration in each supernatant was determined by using a Bio-Rad Protein Assay I(it, and was adjusted to 500 μg/ml with the cell lysis buffer. Each sample was first incubated with a mixture of all types of micro-beads for 90 min at room temperature (RT) followed by an incubation with biotinylated detection antibodies for 30 min and then with a strepavidin-coupled phycoerythrin for 10 min (RT). Finally, the samples were subjected to a flow cytometric system. All acquired data was analyzed using Bio-Plex Manager™ 3.0 software (Bio-Rad) and corrected by total protein concentration (pg/mg protein).
# [2] = tested on: renal myeloperoxidase (MPO) activity; assay: Kidney myeloperoxidase assay after cisplatin; format: in vivo, mouse; details: 72 hr after cisplatin
# Procedure: Renal myeloperoxidase (MPO) activity was measured as described by Laight et al. (18) in the nu/nu mice and wild type mice at 72 hr after receiving cisplatin to semi-quantify neutrophils and macrophages infiltration. Briefly, kidney tissue was homogenized in a solution containing 0.5% (wt/vol) hexadecyltrimethylammonium bromide dissolved in 50 mM potassium phosphate buffer (pH 6.0) and centrifuged for 30 min at 20,000 g at 4° C. Samples were incubated in a water bath at 60° C. for 2 hr and then centrifuged at 4,000 g for 12 min. The collected supernatant (40 μl) in each sample was incubated with 160 μl of a reaction solution containing 1.6 mM tetramethylbenzidine and 3 mM H2O2 diluted in 80 mM phosphate buffer (pH 5.4) in a 96-well microplate. The rate of change in absorbance at 630 nm over 5 min was measured spectrophotometrically. MPO activity was expressed as absorbance changed per minute per 100 mg of wet tissue.
# patients = details: after a single dose of cisplatin; cited from earlier work
# [3] = tested on: CD3 positive cells in mice kidney; assay: Immunohistochemical staining of T cells (CD3) in post cisplatin kidneys; format: in vivo, mouse; details: wild type mice
# Procedure: as §1
# In order to evaluate T cell infiltrating into post cisplatin kidneys as a potential mechanism of action, immunohistochemical staining for T cell was performed on formalin-fixed kidney tissue. Briefly, after deparaffinization and rehydration, kidney sections were immersed in 3% hydrogen peroxide methanol for 5 minutes to block endogenous peroxidase. […] All cisplatin kidney sections were examined by a pathologist and a nephrologist in a blinded fashion, and CD3 positive cells were counted in at least 10 cortico-medulary fields.
# [4] = tested on: wild type, nu/nu, CD4-/- and CD8-/- mice; assay: Survival of mice after a single i.p. dose of cisplatin; format: in vivo, mouse; details: for survival rate: cisplatin 40 mg/kg i.p. single dose; for survival rate / survival: 72 hr
# Procedure: All animal study protocols have been reviewed and approved by the Animal Care and Use Committee of Johns Hopkins University (IACUC), and all experiments were conducted according to NIH guidelines. T cell deficient athymic male mice (B6.Cg-Foxn1^nu, nu/nu) and their C57BL/6 wild type male littermates (6-8 wks, weighing 20-25 g) were purchased from The Jackson Laboratory (Bar Harbor, Me., USA). The two main defects of T cell deficient mice homozygous for the nu/nu spontaneous mutation (Foxn/nu, formerly Hfh11nu) are the abnormal hair growth and defective development of the thymus. Consequently, homozygous nu/nu mice lack T cells and cell-mediated immunity. Genetically matched wild type male littermates were used as controls and as donors of T cells adoptive transfer. CD4-deficient mice (B6.129S2-Cd4tm1Mak), CD8-deficient mice (B6.129S2-Cd8atm1Mak) and their wild type littermates were also purchased from The Jackson Laboratory. Mice were held under pathogen-free conditions in JHMI animal facility with air conditioning, 14 hr/10 hr of light and dark cycle and were free access to food and water during the experiments.
# as §1
# Data are expressed as mean±standard error of mean (SEM) and are compared by unpaired, two-tailed Student t tests for single comparison or by ANOVA Post Hoc test for multiple comparison. Kaplan-Meier analysis was used for mice survival analyses. Statistical significance of difference was defined when the P-value was less than 0.05.
# mice kidneys = assay: Histological examination, semi-quantitative renal tubular injury score after cisplatin; format: in vivo, mouse; details: 72 hr after cisplatin 40 mg/kg, scale 0-4
# Procedure: as §1
# Formalin-fixed paraffin-embedded sections of mice kidneys tissues were cut and stained with hematoxylin and eosin (H&E). Renal tubular injury was assessed using a semi-quantitative scale. A pathologist blinded to the experiments scored the degrees of tubular injury. The magnitude of tubular epithelial cell loss, necrosis, intra-tubular debris and tubular cast formation was scored into six levels based on the percentage of affected tubules in a high power field (HPF) under light microscope. (0: none; 0.5: <10%; 1: 10 to 25%; 2: 25 to 50%; 3: 50 to 75%; 4: >75%).
# [5] = tested on: wild type, nu/nu, CD4-/- and CD8-/- mice; assay: Assessment of renal function (serum creatinine) after cisplatin; format: in vivo, mouse
# Procedure: as §1
# Blood samples were obtained from mice tails prior to (0 hr) and at 24 hr, 48 hr and 72 hr after cisplatin injection. Serum creatinine was measured as a marker of renal dysfunction by a Roche Cobas Fara automated system (Roche, Nutley, N.J., USA) using a Creatinine 557 kit (Sigma Diagnostics, St. Louis, Mo., USA).
# [6] = wild type mice, 72 hr after cisplatin injection
structure (smiles),measurement,setting,value
"N.N.[Cl][Pt][Cl] [cisplatin, cis-diamminedichloroplatinum II]","expression of pro-inflammatory molecules (IL-1β, KC, TNF-α) in the kidney",[1]; nu/nu mice treated with cisplatin compared to wild type mice,reduced expression
same,renal IFN-γ protein levels,"[1]; wild type and nu/nu mice, any time point (24 hr, 72 hr) after cisplatin",no increase
same,renal IL-1β protein level,[1]; [6],53.43±2.61 pg/mg protein
same,renal KC protein level,[1]; [6],338.30±27.04 pg/mg protein
same,renal TNF-α protein level,[1]; [6],707.40±66.28 pg/mg protein
same,increase in renal MPO activity,[2]; nu/nu mice compared with wild type mice,significantly blunted
same,renal MPO activities,"[2]; wild type and nu/nu mice, vs individual saline controls",significant increase
same,patients who developed renal dysfunction,patients,25-30%
same,CD3 positive cells in the kidney,"[3]; as early as 1 hr post cisplatin, vs saline",markedly increased
same,time of peak of kidney T cell increase,"[3]; single dose of cisplatin, declined by 24 hr",12 h
same,survival rate,[4]; C57BL/6 wild type littermates of nu/nu mice,58%
same,survival,"[4]; CD4-/- mice, cisplatin 40 mg/kg i.p.",100%
same,mice died by 72 hr after cisplatin treatment,"[4]; CD4 deficient mice, cisplatin 40 mg/kg i.p.",0/6
same,survival,"[4]; CD8-/- mice, cisplatin 40 mg/kg i.p.",80%
same,mice died by 72 hr after cisplatin treatment,"[4]; CD8 deficient mice, cisplatin 40 mg/kg i.p.",1/6
same,survival rate,[4]; nu/nu (T cell deficient) mice,100%
same,survival,"[4]; nu/nu mice with T cells transfer, cisplatin 40 mg/kg",80%
same,mice dead by 72 hr after injection,"[4]; nu/nu mice, cisplatin 40 mg/kg i.p.",0/12
same,survival,"[4]; wild type littermates of CD4-/- and CD8-/- mice, cisplatin 40 mg/kg i.p.",50%
same,mice died by 72 hr after cisplatin treatment,"[4]; wild type littermates of CD4/CD8 deficient mice, cisplatin 40 mg/kg i.p.",7/12
same,mice dead by 72 hr after injection,"[4]; wild type littermates of nu/nu mice, cisplatin 40 mg/kg i.p.",6/14
same,renal tubular injury score,mice kidneys; nu/nu mice,0.22±0.08
same,renal tubular injury score,mice kidneys; wild type mice,1.44±0.15
same,SCr,"[5]; CD4-/- mice, 24 hr post cisplatin 40 mg/kg i.p.",0.50 ± 0.07 mg/dL
same,SCr,"[5]; CD8-/- mice, 24 hr post cisplatin 40 mg/kg i.p.",0.67 ± 0.08 mg/dL
same,serum creatinine,"[5]; nu/nu mice alone, 72 hr after cisplatin 40 mg/kg",0.58 ± 0.06 mg/dL
same,serum creatinine,"[5]; nu/nu mice transferred with T cells, 72 hr after cisplatin 40 mg/kg",1.23 ± 0.11 mg/dL
same,serum creatinine,"[5]; nu/nu mice, 24 hr after cisplatin 40 mg/kg",0.60 ± 0.05 mg/dL
same,serum creatinine,"[5]; nu/nu mice, 48 hr after cisplatin 40 mg/kg",0.56 ± 0.05 mg/dL
same,serum creatinine,"[5]; wild type mice, 24 hr after cisplatin 40 mg/kg (nu/nu study)",1.05 ± 0.11 mg/dL
same,SCr,"[5]; wild type mice, 24 hr post cisplatin 40 mg/kg i.p. (CD4/CD8 study)",1.74 ± 0.25 mg/dL
same,serum creatinine,"[5]; wild type mice, 48 hr after cisplatin 40 mg/kg",2.09 ± 0.49 mg/dL
same,serum creatinine,"[5]; wild type mice, 72 hr after cisplatin 40 mg/kg",3.61 ± 0.32 mg/dL
